What all share (format): cell-based
Assay [1] relates to bovine sperm. Briefly: Motility of stained unsorted bovine sperm held in Caprogen-type fresh media (fluorescent CASA), Example 14. The text has this: This is with “conventional” (unsorted) sperm stained with Hoechst 33342 (to facilitate CASA using fluorescence).
The fresh extender is a media similar to Caprogen, which contains 5% (v/v) egg yolk and is bubbled with nitrogen gas prior to diluting sperm.
In Caprogen with glycerol, the concentration of glycine is 135 millimolar and the concentration of glycerol is 135 millimolar. Control Media 1 was made with these same concentrations, while the balance of test media (Media 2-7) were made with the following concentrations as shown in Table 13:
Fresh Bovine Ejaculates of 5 bulls were diluted to 160 million sperm per mL into Staining TALP, combined with Hoechst 33342 DNA stain, incubated 60 minutes at 34° C. (as standard staining for XY sperm sorting). Once stained, the sperm in TALP were diluted in the related media to a new concentration of 15 million sperm per mL and placed into 0.25 cc straws, sealed and held horizontal at 18° C. for 4 days. On each day, one straw of sperm was warmed for 15 minutes at 34° C. and the contents of about 200 microliters from the straw were combined with 100 microliters of fresh media identical to the specified test media used to hold the sperm. Sperm were analyzed on fluorescent CASA (Hamilton Thorne IVOS II) using UV illumination.

For a further assay, the system named is sorted bovine sperm. Briefly: Motility of sorted bovine sperm stored in CaproGLY or CaproERY at 17° C. (visual and CASA), Example 15. Particulars: holding times longer than 4 days; erythritol versus glycerol in Caprogen. Here is the method:
Standard Caprogen (with glycerol) is referred to as “CaproGLY” and erythritol containing Caprogen is referred to as “CaproERY.”
Preparation of media in volume of 100 mL: 95 mL of the respective media working solution is combined with 5 mL of egg yolk, stirred for 15 minutes, held overnight at 4° C., centrifuged for 60 minutes at 1200 G in 50 mL Falcon Tubes (clarified). On day of use, nitrogen gas is bubbled through the clarified media for 15 minutes.
Sorting of the sperm to be held in the two fresh extenders: Fresh Ejaculates of 3 Jersey bulls are bulk sorted according to standard proprietary sex sorting methods disclosed in other patents. In brief, sperm are washed, concentrated and resuspended in a Hepes buffered TRIS Citrate extender to normalize concentration to about […] and pH about 7.15. Each 1 mL of staining comprises: 0.150 mL of sperm solution (about 160 million sperm), 64 nanomoles of Hoechst 33342 in 8 microliters, […] of staining TALP and 100 nanomoles of FD&C food dye. […]
The formulated sperm are filled into 0.25 cc straws, sealed and stored horizontally at 17° C. for up to nine days. On the specified test days, a straw is opened and checked for visual motility (counted by eye by technician using microscope analysis on heated stage), CASA total motility and CASA progressive motility using a Hamilton Thorne IVOS system. […]

The test system of assay [2] is bovine sperm. Nature of the assay: Post-thaw visual motility of unstained non-sorted sperm frozen in erythritol test media, Example 17 first test. The protocol:
Standard bovine sperm sorting uses sheath fluid comprising 68 mM Fructose, 80 mM Citrate and 243 mM TRIS at pH 6.80 and osmolarity 290-300 mOsm. […] Combining 88 volumes of TRIS A with 12 volumes of pure glycerol creates a solution called TRIS B (The “B Fraction”). In the case of standard sperm sorting, the “B Fraction” may optionally contain no egg yolk and may be called “[…] Fraction” still containing 12 volumes of pure glycerol. […] The pH of all media was 6.70-6.75 and the osmolarity was 290-305 mOsm. The same two bulls were used for each of two tests and were measured for post-thaw quality at the same time. The first test was done with unstained non-sorted sperm similar to standard “conventional freezing.” The second test was done using different sheath fluids for sorting sperm. The first test compared control (standard media) to 7 alternate media (A-G) with compositions including various amounts of erythritol and in some cases glycine. 10 milliliters of sperm of each bull at a concentration of 100 million sperm per milliliter was cooled in standard TRIS A (control media) over 90 minutes from room temperature to about 4-6° C. Samples were then divided into 1 milliliter aliquots and 0.5 mL of cold TEST-B media was added, held for 15 minutes before an additional 0.5 mL of TEST-B media was added. […]

Assay [3] concerns bovine sperm. Nature of the assay: Post-thaw visual motility of sperm sorted with different sheath fluids, Example 17 second test. Particulars: up to 60 mM erythritol in sheath fluid; standard post-sort handling. The protocol:
Standard bovine sperm sorting uses sheath fluid comprising 68 mM Fructose, 80 mM Citrate and 243 mM TRIS at pH 6.80 and osmolarity 290-300 mOsm. […] Combining 88 volumes of TRIS A with 12 volumes of pure glycerol creates a solution called TRIS B (The “B Fraction”). In the case of standard sperm sorting, the “B Fraction” may optionally contain no egg yolk and may be called “[…] Fraction” still containing 12 volumes of pure glycerol. […] The pH of all media was 6.70-6.75 and the osmolarity was 290-305 mOsm. The same two bulls were used for each of two tests and were measured for post-thaw quality at the same time. The first test was done with unstained non-sorted sperm similar to standard “conventional freezing.” The second test was done using different sheath fluids for sorting sperm. The second test compared a CONTROL (standard) sheath fluid to three alternate sheath fluids (H-J). After sorting all samples were handled in the identical manner to standard sperm sorting. A 3.5 mL volume of catch fluid (TRIS A) is placed in each catch tube and sorted sperm are sorted into the catch tube to a volume of 20 mL. That volume of fluid is then cooled for 90 minutes to about 4-6° C. then an equal volume of cold […] Fraction is added. […]

Regarding `OCC(O)CO` [glycerol, reference compound], the “support of sperm motility (in words)” value with bovine sperm [1] (up to 4 days, 135 millimolar glycerol, or its replacement with erythritol, in Caprogen fresh media) is reported as “beneficial for supporting sperm motility”.
`OC[C@@H](O)[C@@H](O)CO` [erythritol]: the “support of bovine sperm motility (in words)” value in the assay on bovine sperm [1] (as much as 400 millimolar Erythritol in fresh bovine extender, 4 day period) was “good support of bovine sperm motility”. Also, in the assay on sorted bovine sperm, the “preserving quality as seen in motility (in words)” value is “better at preserving quality as seen in motility”. Further, in the assay with bovine sperm [2], the “erythritol concentration giving optimal freezing results” value was in the range of 15 to 50 mM. The “effect on sperm quality when present in sheath fluid (in words)” value with bovine sperm [3] is listed as “beneficial to sperm quality”.

The values above are taken from patent publication US11279913B2, “Sperm processing method, apparatus and related media compositions” (Inguran, LLC, priority 2017, dated 2022).
